Laboratory results published in patent publication US7592319B2, “Uses of DNA-PK” (Sloan-Kettering Institute for Cancer Research, priority 1998, dated 2009).

System: cells derived from either Ku70 or Ku80 knock-out mice
Assay: Survival experiments with Ku-deficient cells exposed to chemotherapeutic agents
Type: cell-based, mouse
Conditions: FIG. 12

Compound | sensitivity of Ku70 or Ku80 knock-out mouse cells to the agent (survival)
bleomycin | very sensitive
COc1cccc2c1C(=O)c1c(O)c3c(c(O)c1C2=O)C[C@@](O)(C(=O)CO)C[C@@H]3O[C@H]1C[C@H](N)[C@H](O)[C@H](C)O1 [adriamycin] | very sensitive
